Data from patent US10160867B2, “Benzoxaborole-containing coating resistant to cellulose-supportable fungus” (THE PENN STATE RESEARCH FOUNDATION, priority 2015, dated 2018).
Converted amounts (≈) assume the structure as drawn.

How the values were obtained:
Aspergillus flavus = assay: 3 day MIC, broth microdilution in 25% PDB; type: cell-based; conditions: 72 h
Outline: (§1)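 Modified CLSI M38-A2 broth microdilution; spore inoculum (in water with 0.1% Tween 20, counted by hemocytometer) at final 0.4-1×10^5 spores/mL. Compounds from DMSO stocks, final about 0.5-2% v/v DMSO. Sealed plates incubated at about 25° C; growth checked at 48 and 72 hours.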

Aspergillus niger = assay: 3 day MIC, broth microdilution in 25% PDB; type: cell-based; conditions: 72 h
Outline: as §1

Aureobasidium pullulans = assay: 3 day MIC, broth microdilution in 25% PDB; type: cell-based; conditions: 72 h
Outline: as §1

[1] = system: Cladosporium cladosporioides; assay: 3 day MIC, broth microdilution in 25% PDB; type: cell-based; conditions: 72 h
Outline: as §1

Fusarium oxysparum ST-33 = assay: 3 day MIC, broth microdilution in 25% PDB; type: cell-based; conditions: ST33, 72 h
Outline: as §1

Mucor spp. = assay: 3 day MIC, broth microdilution in 25% PDB; type: cell-based; conditions: 72 h
Outline: as §1

Rhizopus spp. = assay: 3 day MIC, broth microdilution in 25% PDB; type: cell-based; conditions: 72 h
Outline: as §1

Alternaria alternata = assay: Fungus resistance test for painted surfaces containing antifungal additives (defacement rating); type: cell-based; parameters: key: 10 = no defacement, 0 = completely defaced; conditions: +100 μg/mL in Olympic Home paint
Procedure: (§2) A Defacement Rating is measured by estimating the percentage of surface defacement with 10 being no defacement and 0 begin completely defaced.
(§3) This test was used to evaluate the resistance of paint films containing antifungal additives to surface fungal growth.
(§4) Olympic® Home interior flat latex paint (PPG Industries, Pittsburgh, Pa.) and Valspar® QuikHide White flat interior paint (Valspar Corporation, Minneapolis, Minn.) were used for all studies unless otherwise noted. Stock solutions of the antifungal additives of interest were prepared in reagent grade dimethyl sulfoxide (DMSO; Alfa Aesar, Ward Hill, Mass.). Additives were spiked (by adding appropriate amounts of the antifungal stock solutions) into the liquid paint at specified concentrations. Samples of the additive-spiked paint were vigorously mixed with a vortex mixer for at least one minute to ensure uniform dispersion of the additive in the paint. […] Studies that use other brands of paint followed the same protocol as described for those using the Olympic® Home interior flat latex paint and Valspar® QuikHide paint.
(§5) Test surfaces were prepared in triplicate. In most cases, the tested conditions were repeated on a different date, again in triplicate. […] Two coats of paint were applied with a polyester brush to completely cover both faces of the filter paper disc, allowing at least four hours drying time between coats.
(§6) Nutrient-Salts Agar (NSA) medium was prepared according to ASTM method G21-13 in 100×15 mm sterile polystyrene petri dishes (VWR® Radnor, Pa.) with a solidified agar layer of about 3 to about 6 mm (⅛ to ¼ in.) in depth. The agar was allowed to solidify for at least 24 hours before being used. The painted test filter paper discs were placed in the center of the agar plates in a biosafety hood while wearing clean nitrile gloves.
(§7) The paint coatings were evaluated against three representative cellulose-supportable fungi: Stachybotrys chartarum, Penicillium chrysogenum, and Alternaria alternata. […] Fungal isolates of Alternaria alternata and Penicillium chrysogenum were obtained from the Plant Pathology and Environmental Microbiology Department at Penn State University.
(§8) A spore suspension of each of these fungi was prepared by pouring a 20-mL portion of autoclaved deionized water containing 0.01% Tween® 20 onto a subculture of each fungal species. Spores were counted with the use of a hemocytometer (Hausser Scientific, Horsham, Pa.) under a compound light microscope. Spore suspensions of Stachybotrys chartarum and Penicillium chrysogenum were diluted to 1×10^6 spores/mL with autoclaved deionized water. Spore suspensions of Alternaria alternata were used “as is” in the range of 200,000 to 400,000 spores/mL.
(§9) Painted test surfaces were inoculated with a spray bottle or with a sterile cotton-tipped applicator. To inoculate the sample with a spray bottle, the spore suspension was sprayed twice on the painted test discs with an autoclaved spray bottle that delivered approximately 0.14 g of fluid per spray. To inoculate the sample with a cotton-tipped applicator, an autoclaved cotton-tipped applicator was submerged in approximately 400 μL of the spore inoculum solution (spore concentrations described above) and applied evenly over the surface of the painted test surface twice. A fresh autoclaved cotton-tipped applicator was used for the application of each painted disc. All the paint studies with Alternaria alternata and Stachybotrys chartarum were inoculated using the spray bottle method. For studies with Penicillium chrysogenum using Olympic® Home paint, the spray bottle inoculation method was used. For studies with Penicillium chrysogenum using Valspar® QuikHide paint, the cotton-tipped applicator inoculation method was used.
(§10) After inoculation, the NSA agar plates were sealed with Parafilm®.

Penicillium chrysogenum = assay: as above; type: cell-based; parameters: key: 10 = no defacement, 0 = completely defaced
Procedure: as §2, §3, §4, §5, §6, §7, §8, §9, §10

Stachybotrys chartarum = assay: as above; type: cell-based; parameters: key: 10 = no defacement, 0 = completely defaced; conditions: +100 μg/mL in Olympic Home paint
Procedure: as §2, §3, §4, §5, §6, §7, §8, §9, §10

[2] = commercially available fungicidal agents; cited from earlier work

c1ccc2[nH]c(-c3cscn3)nc2c1 [Thiabendazole]
MIC (Aspergillus flavus): 12.5 mg/L (≈ 62.1 µM) | MIC (Aspergillus niger): 12.5 mg/L (≈ 62.1 µM) | MIC (Aureobasidium pullulans): 0.4 mg/L (≈ 1.99 µM) | MIC [1]: 0.8 mg/L (≈ 3.98 µM) | MIC (Fusarium oxysparum ST-33): 25 mg/L (≈ 124 µM) | MIC (Mucor spp.): > 200 mg/L | MIC (Rhizopus spp.): 400 mg/L (≈ 1990 µM) | Average defacement rating ± standard deviation (Alternaria alternata; 7 days): 0.0 ± 0.0 | Average defacement rating ± standard deviation (Alternaria alternata; 14 days): 0.0 ± 0.0 | Average defacement rating ± standard deviation (Alternaria alternata; 21 days): 0.0 ± 0.0 | Average defacement rating ± standard deviation (Penicillium chrysogenum; +100 μg/mL in Olympic Home paint, 7 days): 4.1 ± 0.0 | Average defacement rating ± standard deviation (Penicillium chrysogenum; +100 μg/mL in Olympic Home paint, 14 days): 0.4 ± 0.4 | Average defacement rating ± standard deviation (Penicillium chrysogenum; +100 μg/mL in Olympic Home paint, 21 days): 0.0 ± 0.0 | Average defacement rating ± standard deviation (Penicillium chrysogenum; +200 μg/mL in Olympic Home paint, 7 days): 9.3 ± 1.2 | Average defacement rating ± standard deviation (Penicillium chrysogenum; +200 μg/mL in Olympic Home paint, 14 days): 4.0 ± 4.7 | Average defacement rating ± standard deviation (Penicillium chrysogenum; +200 μg/mL in Olympic Home paint, 21 days): 1.7 ± 3.6 | Average defacement rating ± standard deviation (Penicillium chrysogenum; +200 μg/mL in Valspar QuikHide paint, 7 days): 10.0 ± 0.0 | Average defacement rating ± standard deviation (Penicillium chrysogenum; +200 μg/mL in Valspar QuikHide paint, 14 days): 9.3 ± 1.2 | Average defacement rating ± standard deviation (Penicillium chrysogenum; +200 μg/mL in Valspar QuikHide paint, 21 days): 4.7 ± 4.6 | Average defacement rating ± standard deviation (Stachybotrys chartarum; 7 days): 1.3 ± 0.3 | Average defacement rating ± standard deviation (Stachybotrys chartarum; 14 days): 0.0 ± 0.0 | Average defacement rating ± standard deviation (Stachybotrys chartarum; 21 days): 0.0 ± 0.0 | Solubility in water [2]: 8 µg/mL (≈ 39.8 µM)
